{
  "source": "paper PMC7060258",
  "about": "(Scientific Reports, 2020)",
  "key": {"α-chymotrypsin": {"test_system": "α-chymotrypsin", "experiment": "Thermodynamic parameters of complexes with α-chymotrypsin", "type": "binding", "settings": "complex with α-chymotrypsin, SPR", "protocol": "The magnitudes of free energy change (∆G) of the complexes differed slightly from the same complexes of HCRG1 and HCRG2 and were lower than for the InhVJ ones.\nThe study of the interaction of serine proteinases with rHCIQ2c1 and rHCIQ4c7 was performed on SPR biosensor Biacore 3000 (GE Healthcare, USA) running under the program “Biacore 3000 Control Software v.1.0”. The evaluation of data was carried out using “Biacore Evaluation v.4.1”. Peptides were covalent immobilized on carboxymethylated surface of the Biacore CM4 sensor chip (GE Healthcare, USA) activated by EDC/NHS (N-hydroxysuccinimide/1-ethyl-3-(3-dimethylaminopropyl)carbodiimide hydrochloride) mixture by the injection of peptide solution (100 µg/ml) in 10 mM sodium acetate (pH 5.5) during 10 min with flow rate 5 µl/min. Quantities of immobilized peptides were 970 RU (resonance units, 1 RU corresponds 1 pg peptide) for rHCIQ2c1 and 460 RU for rHCIQ4c7. In all of the experiments, the flow cell 1 (Fc1) without the immobilized polypeptides was considered as the reference cell for the correction of the signal responses. HBS (HEPES buffered saline-NaCl): 0.15 M NaCl, 0.01 M HEPES, pH 7.4 (cat. no. BR-1003-69, GE Healthcare, USA) was used as the running buffer for the SPR assays. Protease solutions at concentrations from 1 nM to 5 μM were passed through measuring and control biosensor cells at 25 °C during 5 min with a flow rate 5 µl/min. Further complex breakdown was recorded during at most 10 min. After each cycle of SPR measurement, the sensing surface was regenerated by the injection of 50 mM NaOH for 0.5 min at a flow rate of 50 μl/min. Changes in Gibbs free energy (ΔG) at 25 °C were calculated by the following equation:1 ΔG=RTlnKD, where KD is the dissociation constant. Changes in enthalpy (ΔH) and entropic term (−TΔS) were calculated from the linear equation:2 ΔG=ΔH−TΔS, using the liner approximation of temperature dependence of ΔG (Van’t Hoff diagram)."}, "[1]": {"test_system": "murine neuroblastoma Neuro2a cells", "experiment": "Intracellular ROS formation level (H2DCF-DA)", "type": "cell-based", "protocol": "We estimated whether rHCIQ2c1 is able to inhibit reactive oxygen species (ROS) production. After incubation of Neuro2a cells with rHCIQ2c1 (up to 10 µM) and 6-OHDA (25 µM), ROS content was evaluated by measurement of dichlorofluorescin intensity.\nThe intracellular ROS level was detected using 2,7-dichlordihydrofluorescein diacetate (H2DCF-DA) solution (Molecular Probes, final concentration 10 µM). In this study, mouse neuroblastoma Neuro2a cells seeded on 96-well plates were washed twice with serum-free DMEM and thereafter incubated for 1 h in serum-free MEM medium in the presence of compounds in concentrations from 10 pM to 10 µM. Cell were treated with 6-OHDA (25 μM) for 30 min at 37 °C with 5% CO2. Followed by treatment with 6-OHDA, the cells were washed once with PBS. After washing with serum-free DMEM medium, the cells were loaded with H2DCF-DA for 30 min. The intensity of dichlorofluorescin fluorescence was measured with plate reader PHERAstar FS (BMG Labtech, Germany) at λex = 485 nm and λem = 518 nm. The cytoprotective effect of peptides and the increase in cell viability under their action was calculated as a percentage, taking the cell viability treated with 6-OHDA as 100%."}},
  "note": "No end group written: not given here.",
  "data": [
    {"substance": "rHCIQ2c1: recombinant Kunitz-peptide of Heteractis crispa, most prevalent isoform, mature peptide 58 aa, expressed in E. coli (IQGNICSEPKKVGRCRGSFPRFYFDSETGKCTPFIYGGCGGNGNNFETLHACRAICRA; ends and bridges not checked; cysteine pairing not given here)", "values": [
      {"measurement": "T∆S, entropic term", "setting": "α-chymotrypsin; 10–40 °С, Van't Hoff diagram", "result": 15.12, "unit": "kcal/mol"},
      {"measurement": "∆H, enthalpy change", "setting": "α-chymotrypsin; 10–40 °С, Van't Hoff diagram", "result": 4.68, "unit": "kcal/mol"},
      {"measurement": "∆G, Gibbs energy change", "setting": "α-chymotrypsin; 25 °C, ΔG=RTlnKD", "result": "–43.70 kJ/mol"},
      {"measurement": "Reduction of ROS production", "setting": "[1]; 0.001–0.01 µM peptide, pretreatment 1 h, 6-OHDA 25 µM 30 min, dichlorofluorescin fluorescence", "result": 34, "unit": "%"},
      {"measurement": "Concentration dependence of ROS level", "setting": "[1]; up to 10 µM peptide, 6-OHDA 25 µM", "result": "An increase in ROS formation when the concentration of rHCIQ2c1 increases from 0.01 to 1 µM, and its decrease again at 10 µM"}
    ]}
  ]
}
